BindingDB's records for doi:10.1124/jpet.102.047092 (Case Western Reserve University, 2003)

Experiments:
[1] = target: D(3) dopamine receptor (Homo sapiens, UniProt P35462)
[2] = target: 5-hydroxytryptamine receptor 2A (Rattus norvegicus, UniProt P14842)
[3] = target: Sodium-dependent serotonin transporter (Homo sapiens, UniProt P31645)
[4] = target: Cannabinoid receptor 1 (Rattus norvegicus, UniProt P20272)
[5] = target: 5-hydroxytryptamine receptor 1D (Homo sapiens, UniProt P28221)
[6] = target: 5-hydroxytryptamine receptor 7 (Homo sapiens, UniProt P34969)
5-hydroxytryptamine receptor 7, sequence (P34969 whole entry): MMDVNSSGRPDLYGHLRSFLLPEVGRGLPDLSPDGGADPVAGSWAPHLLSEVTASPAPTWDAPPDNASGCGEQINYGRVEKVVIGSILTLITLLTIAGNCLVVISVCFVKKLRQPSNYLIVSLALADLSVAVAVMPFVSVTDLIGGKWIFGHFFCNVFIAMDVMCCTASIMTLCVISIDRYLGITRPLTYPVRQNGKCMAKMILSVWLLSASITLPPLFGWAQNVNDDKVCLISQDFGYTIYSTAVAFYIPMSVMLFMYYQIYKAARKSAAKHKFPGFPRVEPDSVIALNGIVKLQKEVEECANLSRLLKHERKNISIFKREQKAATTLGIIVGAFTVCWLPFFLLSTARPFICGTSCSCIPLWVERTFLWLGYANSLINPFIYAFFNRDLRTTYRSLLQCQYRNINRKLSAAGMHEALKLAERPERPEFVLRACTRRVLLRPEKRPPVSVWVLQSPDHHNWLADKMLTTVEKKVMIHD

[7] = target: Beta-1 adrenergic receptor (Rattus norvegicus, UniProt P18090)
[8] = target: T1, Alpha-2B adrenergic receptor (Homo sapiens, UniProt P18089)
T1 sequence (P18089 whole entry): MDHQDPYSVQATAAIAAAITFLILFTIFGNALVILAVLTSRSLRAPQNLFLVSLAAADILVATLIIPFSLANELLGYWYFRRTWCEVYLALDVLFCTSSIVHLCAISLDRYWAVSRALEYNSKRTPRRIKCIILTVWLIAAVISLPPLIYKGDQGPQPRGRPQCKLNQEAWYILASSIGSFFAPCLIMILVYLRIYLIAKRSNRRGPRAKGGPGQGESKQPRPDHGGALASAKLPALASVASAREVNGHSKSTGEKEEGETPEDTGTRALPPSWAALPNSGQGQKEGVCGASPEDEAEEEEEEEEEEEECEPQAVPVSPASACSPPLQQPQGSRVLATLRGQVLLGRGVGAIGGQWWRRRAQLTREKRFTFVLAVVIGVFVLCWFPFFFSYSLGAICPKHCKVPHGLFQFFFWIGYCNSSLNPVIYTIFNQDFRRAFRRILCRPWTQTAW

[9] = target: Voltage-dependent L-type calcium channel subunit alpha-1C (Rattus norvegicus, UniProt P22002)
Voltage-dependent L-type calcium channel subunit alpha-1C, sequence (P22002 whole entry): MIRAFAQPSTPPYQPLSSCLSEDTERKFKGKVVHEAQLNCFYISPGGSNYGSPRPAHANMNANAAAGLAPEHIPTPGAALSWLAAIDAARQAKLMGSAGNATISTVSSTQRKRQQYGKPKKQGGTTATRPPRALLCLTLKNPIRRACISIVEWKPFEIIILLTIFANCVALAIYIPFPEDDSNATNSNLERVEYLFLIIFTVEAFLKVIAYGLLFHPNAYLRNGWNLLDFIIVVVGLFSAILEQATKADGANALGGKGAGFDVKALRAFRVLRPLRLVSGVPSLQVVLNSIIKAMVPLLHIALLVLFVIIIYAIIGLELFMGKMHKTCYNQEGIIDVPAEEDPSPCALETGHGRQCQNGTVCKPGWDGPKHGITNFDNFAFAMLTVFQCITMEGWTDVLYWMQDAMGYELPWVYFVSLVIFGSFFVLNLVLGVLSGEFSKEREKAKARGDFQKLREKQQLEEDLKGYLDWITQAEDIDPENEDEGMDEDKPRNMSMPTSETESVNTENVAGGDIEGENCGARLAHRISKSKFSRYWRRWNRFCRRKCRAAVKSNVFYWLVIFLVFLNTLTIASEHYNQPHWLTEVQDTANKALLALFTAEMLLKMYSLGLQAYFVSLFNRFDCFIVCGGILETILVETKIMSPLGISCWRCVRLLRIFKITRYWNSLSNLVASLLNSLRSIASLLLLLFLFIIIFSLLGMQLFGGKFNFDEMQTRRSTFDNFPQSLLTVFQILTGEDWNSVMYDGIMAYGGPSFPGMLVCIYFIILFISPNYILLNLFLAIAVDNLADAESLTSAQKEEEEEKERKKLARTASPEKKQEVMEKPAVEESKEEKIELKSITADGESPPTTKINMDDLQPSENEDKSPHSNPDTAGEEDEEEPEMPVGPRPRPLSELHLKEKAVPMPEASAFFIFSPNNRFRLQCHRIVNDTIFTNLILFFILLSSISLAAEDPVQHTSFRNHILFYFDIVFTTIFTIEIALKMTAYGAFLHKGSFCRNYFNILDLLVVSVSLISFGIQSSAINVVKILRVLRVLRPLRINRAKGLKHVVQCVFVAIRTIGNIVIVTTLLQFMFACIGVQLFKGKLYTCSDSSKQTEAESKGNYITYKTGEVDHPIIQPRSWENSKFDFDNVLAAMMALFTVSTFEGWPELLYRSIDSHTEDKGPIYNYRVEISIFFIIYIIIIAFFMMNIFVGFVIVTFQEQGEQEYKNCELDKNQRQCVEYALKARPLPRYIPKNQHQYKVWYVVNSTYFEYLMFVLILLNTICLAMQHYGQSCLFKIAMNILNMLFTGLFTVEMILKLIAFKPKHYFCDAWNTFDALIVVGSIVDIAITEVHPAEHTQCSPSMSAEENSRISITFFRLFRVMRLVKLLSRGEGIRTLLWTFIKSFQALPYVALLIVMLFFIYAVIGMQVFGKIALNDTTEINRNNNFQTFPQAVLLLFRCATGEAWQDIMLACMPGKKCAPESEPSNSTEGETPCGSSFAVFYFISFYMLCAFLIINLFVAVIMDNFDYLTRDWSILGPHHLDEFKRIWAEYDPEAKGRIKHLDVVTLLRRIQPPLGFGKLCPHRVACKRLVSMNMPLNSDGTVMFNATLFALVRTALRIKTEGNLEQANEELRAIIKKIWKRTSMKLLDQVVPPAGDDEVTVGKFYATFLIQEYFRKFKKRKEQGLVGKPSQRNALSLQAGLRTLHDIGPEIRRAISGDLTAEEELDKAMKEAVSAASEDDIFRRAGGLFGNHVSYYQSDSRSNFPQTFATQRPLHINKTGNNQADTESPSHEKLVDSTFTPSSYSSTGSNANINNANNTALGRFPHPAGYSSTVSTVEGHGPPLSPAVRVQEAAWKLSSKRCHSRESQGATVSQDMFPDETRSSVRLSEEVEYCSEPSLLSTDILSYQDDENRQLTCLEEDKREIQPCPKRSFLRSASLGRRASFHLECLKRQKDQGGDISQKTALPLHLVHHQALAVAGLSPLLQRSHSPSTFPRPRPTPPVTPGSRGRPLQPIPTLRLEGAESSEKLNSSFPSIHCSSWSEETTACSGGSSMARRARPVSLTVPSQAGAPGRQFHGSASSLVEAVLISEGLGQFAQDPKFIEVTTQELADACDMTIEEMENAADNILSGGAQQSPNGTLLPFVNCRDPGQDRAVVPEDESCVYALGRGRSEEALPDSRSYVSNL

[10] = target: T2, Muscarinic acetylcholine receptor M4 (Homo sapiens, UniProt P08173)
T2 sequence (P08173 whole entry): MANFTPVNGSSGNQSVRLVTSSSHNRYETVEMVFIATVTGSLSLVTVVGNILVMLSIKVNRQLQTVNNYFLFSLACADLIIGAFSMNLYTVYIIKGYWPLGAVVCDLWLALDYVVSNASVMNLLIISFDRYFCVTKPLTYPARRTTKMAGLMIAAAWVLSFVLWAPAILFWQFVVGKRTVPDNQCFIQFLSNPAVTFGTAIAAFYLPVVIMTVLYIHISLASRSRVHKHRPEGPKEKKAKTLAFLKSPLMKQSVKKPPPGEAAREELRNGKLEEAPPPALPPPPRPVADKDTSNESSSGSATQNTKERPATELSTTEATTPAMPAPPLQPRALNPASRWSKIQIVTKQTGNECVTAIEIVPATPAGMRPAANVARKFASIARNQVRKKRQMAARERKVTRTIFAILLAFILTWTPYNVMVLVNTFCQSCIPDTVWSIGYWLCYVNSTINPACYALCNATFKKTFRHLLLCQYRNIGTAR

[11] = target: Neuronal acetylcholine receptor subunit alpha-2 (Homo sapiens, UniProt Q15822)
[12] = target: T3, D(4) dopamine receptor (Rattus norvegicus, UniProt P30729)
T3 sequence (P30729 whole entry): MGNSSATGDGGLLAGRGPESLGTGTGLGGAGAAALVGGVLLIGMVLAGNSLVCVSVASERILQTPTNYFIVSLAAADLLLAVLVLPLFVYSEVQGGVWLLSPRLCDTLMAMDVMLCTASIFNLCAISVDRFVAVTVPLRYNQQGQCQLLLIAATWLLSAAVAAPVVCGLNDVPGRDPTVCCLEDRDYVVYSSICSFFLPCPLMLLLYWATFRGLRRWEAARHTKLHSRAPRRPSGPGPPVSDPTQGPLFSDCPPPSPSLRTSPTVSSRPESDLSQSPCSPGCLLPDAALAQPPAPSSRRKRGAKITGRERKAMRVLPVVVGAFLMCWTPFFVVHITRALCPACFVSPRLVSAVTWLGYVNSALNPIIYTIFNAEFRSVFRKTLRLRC

[13] = target: Nischarin (Rattus norvegicus, UniProt Q4G017)
[14] = target: T4, Muscarinic acetylcholine receptor M5 (Homo sapiens, UniProt P08912)
T4 sequence (P08912 whole entry): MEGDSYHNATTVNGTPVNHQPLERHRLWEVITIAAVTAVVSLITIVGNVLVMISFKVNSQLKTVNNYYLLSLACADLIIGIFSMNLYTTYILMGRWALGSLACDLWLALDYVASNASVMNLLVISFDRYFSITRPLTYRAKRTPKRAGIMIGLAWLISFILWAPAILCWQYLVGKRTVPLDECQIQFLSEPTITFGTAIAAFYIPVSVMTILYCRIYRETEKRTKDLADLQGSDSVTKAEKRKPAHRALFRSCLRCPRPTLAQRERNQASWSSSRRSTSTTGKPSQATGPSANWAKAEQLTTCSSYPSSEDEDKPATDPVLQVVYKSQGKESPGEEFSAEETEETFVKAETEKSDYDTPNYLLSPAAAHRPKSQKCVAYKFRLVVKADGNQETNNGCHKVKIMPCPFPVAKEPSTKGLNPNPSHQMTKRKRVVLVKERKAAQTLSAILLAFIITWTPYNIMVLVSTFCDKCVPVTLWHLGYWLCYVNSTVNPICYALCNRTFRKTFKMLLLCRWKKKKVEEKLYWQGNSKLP

[15] = target: Beta-2 adrenergic receptor (Rattus norvegicus, UniProt P10608)
Beta-2 adrenergic receptor, sequence (P10608 whole entry): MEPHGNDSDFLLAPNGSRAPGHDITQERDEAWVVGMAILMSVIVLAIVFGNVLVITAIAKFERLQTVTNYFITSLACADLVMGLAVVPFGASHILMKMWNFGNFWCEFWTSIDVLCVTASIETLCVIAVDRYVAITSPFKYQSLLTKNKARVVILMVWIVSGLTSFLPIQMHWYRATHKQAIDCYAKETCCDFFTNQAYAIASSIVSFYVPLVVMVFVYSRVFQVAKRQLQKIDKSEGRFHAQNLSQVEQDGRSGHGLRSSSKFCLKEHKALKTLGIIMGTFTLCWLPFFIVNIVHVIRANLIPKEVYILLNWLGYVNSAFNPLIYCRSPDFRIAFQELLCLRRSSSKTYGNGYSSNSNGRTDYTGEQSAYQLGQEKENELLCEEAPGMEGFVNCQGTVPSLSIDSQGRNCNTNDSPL

[16] = target: Vasopressin V2 receptor (Homo sapiens, UniProt P30518)
Vasopressin V2 receptor, sequence (P30518 whole entry): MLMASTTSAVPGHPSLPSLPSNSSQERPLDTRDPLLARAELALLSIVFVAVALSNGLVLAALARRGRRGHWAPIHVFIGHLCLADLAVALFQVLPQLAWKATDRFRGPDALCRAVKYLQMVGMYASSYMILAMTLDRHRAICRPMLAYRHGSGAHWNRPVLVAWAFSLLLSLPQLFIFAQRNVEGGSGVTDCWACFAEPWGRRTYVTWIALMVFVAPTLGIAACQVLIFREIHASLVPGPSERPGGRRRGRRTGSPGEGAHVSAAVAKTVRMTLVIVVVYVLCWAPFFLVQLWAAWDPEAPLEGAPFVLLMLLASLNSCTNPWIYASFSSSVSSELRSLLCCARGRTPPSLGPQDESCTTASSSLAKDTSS

5-hydroxytryptamine receptor 2A, sequence (P14842 whole entry): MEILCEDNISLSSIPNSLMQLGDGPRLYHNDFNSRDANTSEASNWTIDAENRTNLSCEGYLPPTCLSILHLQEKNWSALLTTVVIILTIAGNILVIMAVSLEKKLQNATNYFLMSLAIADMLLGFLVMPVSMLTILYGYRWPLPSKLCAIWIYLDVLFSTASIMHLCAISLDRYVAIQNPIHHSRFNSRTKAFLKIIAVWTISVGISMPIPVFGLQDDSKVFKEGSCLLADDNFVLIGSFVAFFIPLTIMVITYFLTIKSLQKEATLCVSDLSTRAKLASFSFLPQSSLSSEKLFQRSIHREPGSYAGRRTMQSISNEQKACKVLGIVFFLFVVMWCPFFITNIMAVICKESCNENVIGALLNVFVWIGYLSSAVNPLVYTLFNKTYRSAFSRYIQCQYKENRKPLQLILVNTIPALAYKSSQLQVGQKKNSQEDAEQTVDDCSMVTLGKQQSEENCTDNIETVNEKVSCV
5-hydroxytryptamine receptor 1D, sequence (P28221 whole entry): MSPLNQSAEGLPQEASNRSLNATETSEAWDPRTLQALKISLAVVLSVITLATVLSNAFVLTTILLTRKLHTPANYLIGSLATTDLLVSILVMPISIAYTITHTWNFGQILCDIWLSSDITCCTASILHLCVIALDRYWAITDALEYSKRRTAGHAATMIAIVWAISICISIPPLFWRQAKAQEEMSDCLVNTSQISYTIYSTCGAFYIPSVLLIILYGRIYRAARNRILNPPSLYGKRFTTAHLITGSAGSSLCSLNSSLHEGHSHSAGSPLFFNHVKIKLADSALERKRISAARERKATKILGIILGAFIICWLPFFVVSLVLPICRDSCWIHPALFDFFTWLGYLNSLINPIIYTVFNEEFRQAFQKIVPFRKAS
Sodium-dependent serotonin transporter, sequence (P31645 whole entry): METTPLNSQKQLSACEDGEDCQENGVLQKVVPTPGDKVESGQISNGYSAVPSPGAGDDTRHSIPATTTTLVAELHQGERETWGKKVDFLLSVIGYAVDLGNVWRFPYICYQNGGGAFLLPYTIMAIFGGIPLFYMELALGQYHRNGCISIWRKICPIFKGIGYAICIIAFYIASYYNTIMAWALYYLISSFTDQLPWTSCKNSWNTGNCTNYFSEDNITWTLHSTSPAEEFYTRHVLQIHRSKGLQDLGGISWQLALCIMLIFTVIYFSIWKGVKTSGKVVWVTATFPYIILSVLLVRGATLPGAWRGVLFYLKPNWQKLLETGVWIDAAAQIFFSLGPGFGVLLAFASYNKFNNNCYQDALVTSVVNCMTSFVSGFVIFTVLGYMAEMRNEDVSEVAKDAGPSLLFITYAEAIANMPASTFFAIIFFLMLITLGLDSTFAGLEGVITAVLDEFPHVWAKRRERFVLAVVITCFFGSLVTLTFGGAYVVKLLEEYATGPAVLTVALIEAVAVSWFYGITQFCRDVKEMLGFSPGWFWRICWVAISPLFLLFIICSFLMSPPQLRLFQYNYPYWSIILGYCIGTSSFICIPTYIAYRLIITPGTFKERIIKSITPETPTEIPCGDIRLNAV

SMILES	Ki [1] [µM]	Ki [2] [µM]	Ki [3] [µM]	Ki [4] [µM]	Ki [5] [µM]	Ki [6] [µM]	Ki [7] [µM]	Ki [8] [µM]	Ki [9] [µM]	Ki [10] [µM]	Ki [11] [µM]	Ki [12] [µM]	Ki [13] [µM]	Ki [14] [µM]	Ki [15] [µM]	Ki [16] [µM]
N[C@@H]1CCSC1=O [D-homocysteine thiolactone]	–	> 10	> 10	> 10	–	> 10	> 10	–	> 10	> 10	> 10	> 10	> 10	> 10	> 10	–
N[C@@H](CCS(=O)(=O)O)C(=O)O (racemic)	> 10	> 10	> 10	–	> 10	> 10	–	> 10	–	> 10	–	> 10	–	> 10	> 10	> 10
NC(CSSCC(N)C(=O)O)C(=O)O (configuration not stated) [CAS_595]	> 10	> 10	> 10	> 10	> 10	> 10	> 10	> 10	> 10	> 10	> 10	> 10	> 10	> 10	> 10	> 10
N[C@@H](CS)C(=O)O [CAS_5862]	> 10	> 10	> 10	> 10	> 10	> 10	> 10	> 10	> 10	> 10	> 10	> 10	> 10	> 10	> 10	> 10
N[C@@H](CCS(=O)O)C(=O)O [L-homocysteine sulfinic acid]	> 10	> 10	–	> 10	> 10	> 10	> 10	> 10	> 10	> 10	> 10	> 10	> 10	> 10	> 10	> 10
N[C@H]1CCSC1=O [NSC_134505]	–	> 10	> 10	> 10	–	> 10	> 10	> 10	> 10	> 10	> 10	> 10	> 10	> 10	> 10	–

Results, then the compound that gave them:

Ki [1] [µM]	Ki [2] [µM]	Ki [3] [µM]	Ki [4] [µM]	Ki [5] [µM]	Ki [6] [µM]	Ki [7] [µM]	Ki [8] [µM]	Ki [9] [µM]	Ki [10] [µM]	Ki [11] [µM]	Ki [12] [µM]	Ki [13] [µM]	Ki [14] [µM]	Ki [15] [µM]	Ki [16] [µM]	SMILES
> 10	> 10	> 10	> 10	> 10	> 10	> 10	> 10	> 10	> 10	> 10	> 10	> 10	> 10	> 10	> 10	N[C@H](CCS(=O)O)C(=O)O [D-homocysteine sulfinic acid]
> 10	> 10	> 10	> 10	> 10	> 10	> 10	> 10	> 10	> 10	> 10	> 10	> 10	> 10	> 10	> 10	NC(CS(=O)O)C(=O)O (configuration not stated) [CAS_109]
> 10	> 10	> 10	> 10	> 10	> 10	> 10	–	> 10	> 10	> 10	> 10	> 10	> 10	> 10	> 10	N[C@H](CS(=O)(=O)O)C(=O)O [L-cysteic acid]
> 10	> 10	> 10	> 10	> 10	> 10	> 10	> 10	> 10	> 10	> 10	> 10	> 10	> 10	> 10	> 10	N[C@H](CCS(=O)(=O)O)C(=O)O [D-homocysteic acid]
> 10	> 10	> 10	> 10	> 10	> 10	> 10	> 10	> 10	> 10	> 10	> 10	> 10	> 10	> 10	> 10	CSCC[C@@H](N)C(=O)O [CAS_6137]
> 10	> 10	> 10	> 10	> 10	> 10	> 10	> 10	> 10	> 10	> 10	> 10	–	> 10	> 10	> 10	N[C@@H](CCS)C(=O)O (racemic) [CAS_778]
